pIC50, pKi: −log10 of the molar value. Where two headings read alike, the source gives them in different places.
Tests used:
SARS-CoV-2 NSP3 Mac1 [1] = target: T1, SARS-CoV-2 NSP3 Mac1 (Severe acute respiratory syndrome coronavirus 2, UniProt P0DTD1); assay: biochemical; format: binding; conditions: for pIC50: read-out: IC50; for pKi: read-out: Ki***
SARS-CoV-2 NSP3 Mac1 [2] = target: T1, SARS-CoV-2 NSP3 Mac1; format: binding; conditions: for Refined occupancy: ligand occupancy after refinement (phenix.refine)
[3] = HTRF ADPr-peptide displacement from SARS-CoV-2 Mac1
[4] = Ki estimation from HTRF-derived IC50, Cheng-Prusoff, peptide 400nM, Kd 2.68µM
[5] = PanDDA 1-BDC of the event, compound stock 100 mM, Echo dispense volume 40 nl
[6] = PanDDA event map 1-BDC, crystal soak, Compound_concentration 100 mM, PanDDA run dmso_34 or nohits_35 per dataset
[7] = PanDDA event map, 1 minus background density correction, crystal soaking of Mac1
[8] = crystal soak, Compound_concentration 100 mM, Echo dispense 40 nl, PanDDA run dmso_34 or nohits_35 per dataset
[9] = crystal soak, compound stock 100 mM, Echo dispense volume 40 nl
[10] = ligand modeled in structure, compound stock 100 mM, Echo dispense volume 40 nl
[11] = true hit = binding in crystallographic soaking or the HTRF-based binding assay
[12] = PanDDA 1-BDC of the event, compound stock 100 mM, Echo dispense volume 80 nl
[13] = crystal soak, compound stock 100 mM, Echo dispense volume 80 nl
[14] = ligand modeled in structure, compound stock 100 mM, Echo dispense volume 80 nl

Row | Structure (SMILES) | pIC50 (SARS-CoV-2 NSP3 Mac1 [1]; [3]) | pIC50 (SARS-CoV-2 NSP3 Mac1 [1]; HTRF) | pKi (SARS-CoV-2 NSP3 Mac1 [1]; [4]) | 1-BDC (PanDDA) (SARS-CoV-2 NSP3 Mac1 [2]; [7]) | Refined occupancy (SARS-CoV-2 NSP3 Mac1 [2]; crystal soaking of Mac1) | HIT* (SARS-CoV-2 NSP3 Mac1 [2]; [11]) | other results
1 | O=C(O)C[C@@H]1CN(c2ncnc3[nH]c4cc(F)ccc4c23)C[C@H](CO)O1 [LL114_0001] | 5.10 | 5.09 | 5.15 | 0.12 | 24 | Y | 1-BDC (SARS-CoV-2 NSP3 Mac1 [2]; [5]): 0.12; 1-BDC (SARS-CoV-2 NSP3 Mac1 [2]; [6]): 0.14; PanDDA hit? (SARS-CoV-2 NSP3 Mac1 [2]; [8]): TRUE; PanDDA hit? (SARS-CoV-2 NSP3 Mac1 [2]; [9]): TRUE; Modeled? (SARS-CoV-2 NSP3 Mac1 [2]; [10]): TRUE
2 | O=C(O)CC1CN(c2ncnc3[nH]c4cc(Br)ccc4c23)CCO1 (centres unmarked) [LL114_0014] | – | 4.59 | 4.65 | – | – | Y | –
3 | CS(=O)(=O)NC(=O)C1CN(c2ncnc3[nH]c4cc(F)ccc4c23)CCO1 (centres unmarked) [LL114_0019] | 4.92 | 4.91 | 4.97 | 0.1 | 20 | Y | 1-BDC (SARS-CoV-2 NSP3 Mac1 [2]; [5]): 0.1; PanDDA hit? (SARS-CoV-2 NSP3 Mac1 [2]; [9]): TRUE; Modeled? (SARS-CoV-2 NSP3 Mac1 [2]; [10]): TRUE
4 | O=C(O)C1(F)CN(c2ncnc3[nH]c4cc(Br)ccc4c23)CC12CCC2 (centres unmarked) [LL123_0006] | – | 4.03 | 4.09 | 0.08 | 16 | Y | 1-BDC (SARS-CoV-2 NSP3 Mac1 [2]; [5]): 0.08; 1-BDC (SARS-CoV-2 NSP3 Mac1 [2]; [12]): 0.15; PanDDA hit? (SARS-CoV-2 NSP3 Mac1 [2]; [9]): TRUE; PanDDA hit? (SARS-CoV-2 NSP3 Mac1 [2]; [13]): TRUE; Modeled? (SARS-CoV-2 NSP3 Mac1 [2]; [10]): TRUE
5 | O=C(O)C1CN(c2ncnc3[nH]c4cc(F)ccc4c23)CCC12CCC2 (centres unmarked) [LL123_0029] | 4.80 | 4.80 | 4.86 | 0.11 | 22 | Y | 1-BDC (SARS-CoV-2 NSP3 Mac1 [2]; [12]): 0.11; PanDDA hit? (SARS-CoV-2 NSP3 Mac1 [2]; [13]): TRUE; Modeled? (SARS-CoV-2 NSP3 Mac1 [2]; [14]): TRUE
6 | CS(=O)(=O)NC(=O)C1(F)CN(c2ncnc3[nH]c4cc(F)ccc4c23)CC12CCC2 (centres unmarked) [LL123_0036] | 4.77 | – | 4.83 | 0.18 | 36 | Y | 1-BDC (SARS-CoV-2 NSP3 Mac1 [2]; [12]): 0.18; 1-BDC (SARS-CoV-2 NSP3 Mac1 [2]; [6]): 0.2; PanDDA hit? (SARS-CoV-2 NSP3 Mac1 [2]; [8]): TRUE; PanDDA hit? (SARS-CoV-2 NSP3 Mac1 [2]; [13]): TRUE; Modeled? (SARS-CoV-2 NSP3 Mac1 [2]; [14]): TRUE
7 | O=C(O)CC1CN(c2ncnc3[nH]c4ccccc4c23)CC(C(F)(F)F)O1 (centres unmarked) [Z1229] | – | 3.92 | 3.98 | – | – | Y | –
8 | CC1(C)CN(c2ncnc3[nH]c4ccccc4c23)CC(CC(=O)O)O1 (centres unmarked) [Z2215] | – | 3.94 | 4.00 | – | – | Y | –
9 | O=C(O)C(F)(F)F.O=C(O)C1CN(c2ncnc3[nH]c4ccccc4c23)CC12CCC2 (centres unmarked) [Z4706] | – | 4.81 | 4.87 | – | – | Y | –
10 | O=C(O)CC1CCN(c2ncnc3[nH]c4ccccc4c23)CCC1(F)F (centres unmarked) [Z6423] | – | 3.84 | 3.91 | – | – | Y | –
11 | Nc1ccc(C(=O)OC2c3ccccc3CC2C(=O)O)c(O)c1 (centres unmarked) [Z8507] | 3.84 | – | – | 0.37 | 74 | – | pKi (SARS-CoV-2 NSP3 Mac1 [1]): 3.90; 1-BDC (SARS-CoV-2 NSP3 Mac1 [2]; PanDDA event map background density correction, crystal soak, compound concentration 100 mM): 0.37; Modeled? (SARS-CoV-2 NSP3 Mac1 [2]; ligand modeled in the crystal structure, crystal soak, compound concentration 100 mM): TRUE; HIT* (SARS-CoV-2 NSP3 Mac1 [2]; overall hit call: binding in crystallographic soaking or the HTRF-based binding assay): Y
12 | O=C(Nc1ccc(C(=O)NC2c3cccc(O)c3CC2C(=O)O)cn1)NC1CC1 (centres unmarked) [Z8539_0054] | – | 4.80 | 4.86 | – | – | Y | –
13 | O=C(Nc1ccc(C(=O)NC2c3cccc(O)c3CC2C(=O)O)c(Cl)c1)NC1CC1 (centres unmarked) [Z8539_0055] | 5.02 | 5.00 | 5.06 | – | 26 | Y | 1-BDC (SARS-CoV-2 NSP3 Mac1 [2]; [6]): 0.22; 1-BDC (SARS-CoV-2 NSP3 Mac1 [2]; [7]): 0.13; PanDDA hit? (SARS-CoV-2 NSP3 Mac1 [2]; [8]): TRUE; Modeled? (SARS-CoV-2 NSP3 Mac1 [2]; ligand modeled from this dataset, compound concentration 100 mM): TRUE
